Test results published in patent US6737383B1, “Herbicidal oxadiazolidines” (priority 1999, dated 2004).

Tests used:
rice = experiment: Test B flood test rice; type: in vivo, Oryza sativa
Outline: (§1)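 Each value is a visual injury score relative to controls, with 10 meaning complete control and 0 no effect. Evaluation took place twelve to sixteen days after the 2-leaf-stage plants were treated and kept in the greenhouse.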

winter wheat [1] = experiment: Test E winter wheat; type: in vivo, Triticum aestivum; conditions: Postemergence
Outline: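 For postemergence, sowings are timed so plants reach the 1- to 4-leaf stage at spraying. Test compound is applied in a surfactant-containing solvent mixture that is non-phytotoxic. Response is judged by eye against untreated controls after approximately 21 to 28 days.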

duck salad = experiment: Test B flood test duck salad; type: in vivo, Heteranthera limosa
Outline: as §1

winter wheat [2] = experiment: Test E winter wheat; type: in vivo, Triticum aestivum; conditions: Preemergence
giant foxtail = experiment: Test B pre/postemergence giant foxtail; type: in vivo, Setaria faberii
Outline: (§2)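 Test chemicals in a non-phytotoxic solvent mixture with surfactant were sprayed preemergence onto planted seeds and postemergence onto plants 2 to 18 cm tall (1- to 4-leaf stage). After twelve to sixteen days in a greenhouse, injury was visually rated against untreated controls from 0 (no effect) to 10 (complete control).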

Italian ryegrass = experiment: Test E Italian ryegrass; type: in vivo, Lolium multiflorum; conditions: Preemergence
wild oat = experiment: Test E wild oat; type: in vivo, Avena fatua; conditions: Preemergence
blackgrass = experiment: Test E blackgrass; type: in vivo, Alopecurus myosuroides; conditions: Preemergence
green foxtail = experiment: Test E green foxtail; type: in vivo, Setaria viridis; conditions: Preemergence
winter barley = experiment: Test E winter barley; type: in vivo, Hordeum vulgare; conditions: Preemergence
morningglory = experiment: Test B pre/postemergence morningglory; type: in vivo, Ipomoea hederacea
Outline: as §2

[3] = Postemergence (flood test), Rate 125 g/ha, scale 0 to 10, 0 is no effect, 10 is complete control
[4] = Rate 62 g/ha, Postemergence (flood test species), scale of 0 to 10 where 0 is no effect and 10 is complete control
[5] = Rate 62 g/ha, flood test species, Pre-emergence, visual evaluation after twelve to sixteen days
[6] = Rate 125 g/ha, Pre-emergence, flood test species, scale 0 to 10 where 0 is no effect and 10 is complete control
[7] = Rate 250 g/ha, Pre-emergence, flood-test species, scale 0 to 10, 0 is no effect, 10 is complete control
[8] = Rate 500 g/ha, listed under Postemergence (flood test species), scale 0 to 10, 0 no effect, 10 complete control
[9] = Rate 500 g/ha, Pre-emergence, flood test species, scale 0 to 10 (0 no effect, 10 complete control)
[10] = Rate 125 g/ha, 0 to 100 scale (0 no effect, 100 complete control)
[11] = Rate 500 g/ha, 0 to 100 scale (0 no effect, 100 complete control)
[12] = Postemergence, Rate 125 g/ha, scale 0 to 10, 0 is no effect, 10 is complete control
[13] = Preemergence, Rate 62 g/ha, scale 0 to 10 (0 no effect, 10 complete control)
[14] = Preemergence, Rate 250 g/ha, scale of 0 to 10 where 0 is no effect and 10 is complete control
[15] = Preemergence, Rate 500 g/ha, scale of 0 to 10 where 0 is no effect and 10 is complete control
[16] = Rate 62 g/ha, Postemergence, scale of 0 to 10 where 0 is no effect and 10 is complete control
[17] = Rate 500 g/ha, Postemergence, scale 0 to 10, 0 no effect, 10 complete control
[18] = Postemergence (flood test species), Rate 125 g/ha, scale of 0 to 10 where 0 is no effect and 10 is complete control
[19] = Postemergence, Rate 62 g/ha, scale 0 to 10, 0 is no effect, 10 is complete control
[20] = Rate 31 g/ha, Postemergence section (flood test species), scale 0 to 10
[21] = Rate 500 g/ha, 0 to 100 scale where 0 is no effect and 100 is complete control
[22] = Postemergence, Rate 125 g/ha, scale of 0 to 10 where 0 is no effect and 10 is complete control
[23] = Postemergence, Rate 250 g/ha, scale 0 to 10, 0 no effect, 10 complete control
[24] = Preemergence, Rate 31 g/ha, visual rating, scale 0 to 10 (0 no effect, 10 complete control)
[25] = Preemergence, Rate 125 g/ha, scale 0 to 10 (0 no effect, 10 complete control)
[26] = Rate 31 g/ha, Postemergence, scale 0 to 10

Structure (SMILES): CC(C)N(C(=O)n1oc(=O)n(C2CCC2)c1=O)c1ccc(F)cc1 [Compound 350]
- Plant response rating, Rice (rice; [3]): 0
- Rice plant response rating (rice; [4]): 0
- Plant response rating, Rice (0 to 10 scale, 0 is no effect, 10 is complete control) (rice; [5]): 0
- Rice plant response rating (rice; [6]): 0
- Rice plant response rating (rice; [7]): 0
- Plant response rating, Rice (rice; [8]): 0
- Rice plant response rating (rice; [9]): 0
- Plant response rating, Wheat (winter) (winter wheat [1]; Rate 125 g/ha, 0 to 100 scale, 0 is no effect, 100 is complete control): 50
- Plant response rating, Wheat (winter) (winter wheat [1]; Rate 250 g/ha, 0 to 100 scale, 0 is no effect, 100 is complete control): 30
- Plant response rating, Wheat (winter) (winter wheat [1]; Rate 500 g/ha, 0 to 100 scale, 0 is no effect, 100 is complete control): 40
- Plant response rating, Ducksalad (duck salad; [3]): 2
- Ducksalad plant response rating (duck salad; [4]): 0
- Plant response rating, Ducksalad (0 to 10 scale, 0 is no effect, 10 is complete control) (duck salad; [5]): 0
- Ducksalad plant response rating (duck salad; [6]): 0
- Ducksalad plant response rating (duck salad; [7]): 0
- Plant response rating, Ducksalad (duck salad; [8]): 3
- Ducksalad plant response rating (duck salad; [9]): 0
- Plant response rating, Wheat (winter) (winter wheat [2]; [10]): 40
- Plant response rating, Wheat (winter) (winter wheat [2]; Rate 250 g/ha, 0 to 100 scale): 40
- Plant response rating, Wheat (winter) (winter wheat [2]; [11]): 50
- Plant response rating, Giant foxtail (giant foxtail; [12]): 8
- Plant response rating, Giant foxtail (giant foxtail; [13]): 10
- Giant foxtail plant response rating (0 to 10 scale) (giant foxtail; Preemergence, Rate 125 g/ha): 10
- Giant foxtail plant response rating (giant foxtail; [14]): 10
- Giant foxtail plant response rating (giant foxtail; [15]): 10
- Giant foxtail plant response rating (giant foxtail; [16]): 5
- Plant response rating, Giant foxtail (giant foxtail; [17]): 9
- Plant response rating, I. Ryegrass (Italian ryegrass; [10]): 60
- Plant response rating, I. Ryegrass (Italian ryegrass; Rate 250 g/ha, 0 to 100 scale): 90
- Plant response rating, I. Ryegrass (Italian ryegrass; [11]): 85
- Plant response rating, Wild oat (wild oat; [10]): 40
- Plant response rating, Wild oat (wild oat; Rate 250 g/ha, 0 to 100 scale): 60
- Plant response rating, Wild oat (wild oat; [11]): 65
- Plant response rating, Blackgrass (blackgrass; [10]): 50
- Plant response rating, Blackgrass (blackgrass; Rate 250 g/ha, 0 to 100 scale): 30
- Plant response rating, Blackgrass (blackgrass; [11]): 60
- Plant response rating, Green foxtail (green foxtail; [10]): 65
- Plant response rating, Green foxtail (green foxtail; Rate 250 g/ha, 0 to 100 scale): 55
- Plant response rating, Green foxtail (green foxtail; [11]): 85
- Plant response rating, Barley (winter) (winter barley; [10]): 5
- Plant response rating, Barley (winter) (winter barley; Rate 250 g/ha, 0 to 100 scale, 0 no effect, 100 complete control): 10
- Plant response rating, Barley (winter) (winter barley; [11]): 25
- Plant response rating, Morningglory (morningglory; [12]): 6
- Plant response rating, Morningglory (morningglory; [13]): 0
- Morningglory plant response rating (0 to 10 scale) (morningglory; Preemergence, Rate 125 g/ha): 0
- Morningglory plant response rating (morningglory; [14]): 0
- Morningglory plant response rating (morningglory; [15]): 2
- Morningglory plant response rating (morningglory; [16]): 3
- Plant response rating, Morningglory (morningglory; [17]): 9

Structure (SMILES): CC(C)N(C(=O)n1oc(=O)n(-c2cnn(C)c2)c1=O)c1ccc(F)cc1 [Compound 98]
- Rice plant response rating (rice; [18]): 4
- Rice plant response rating (rice; [19]): 0
- Rice plant response rating (rice; [20]): 0
- Plant response rating, Rice (rice; Rate 250 g/ha, Postemergence (flood test), scale 0 to 10, 0 is no effect, 10 is complete control): 6
- Plant response rating, Wheat (winter) (winter wheat [1]; Rate 125 g/ha, 0 to 100 scale): 30
- Plant response rating, Wheat (winter) (winter wheat [1]; Rate 250 g/ha, 0 to 100 scale (0 no effect, 100 complete control)): 50
- Plant response rating, Wheat (winter) (winter wheat [1]; Rate 500 g/ha, 0 to 100 scale, 0 no effect, 100 complete control): 55
- Ducksalad plant response rating (duck salad; [18]): 2
- Ducksalad plant response rating (duck salad; [19]): 0
- Ducksalad plant response rating (duck salad; [20]): 0
- Ducksalad plant response rating (duck salad; flood test, listed under Postemergence, Rate 250 g/ha, scale 0 to 10, 0 no effect, 10 complete control): 3
- Plant response rating, Wheat (winter) (winter wheat [2]; [10]): 30
- Plant response rating, Wheat (winter) (winter wheat [2]; Rate 250 g/ha, 0 to 100 scale): 40
- Plant response rating, Wheat (winter) (winter wheat [2]; [21]): 40
- Giant foxtail plant response rating (giant foxtail; [19]): 0
- Giant foxtail plant response rating (giant foxtail; [22]): 0
- Giant foxtail plant response rating (giant foxtail; [23]): 2
- Giant foxtail plant response rating (giant foxtail; [24]): 4
- Giant foxtail plant response rating (giant foxtail; [13]): 5
- Plant response rating, Giant foxtail (giant foxtail; [25]): 8
- Plant response rating, Giant foxtail (giant foxtail; [14]): 10
- Giant foxtail plant response rating (giant foxtail; [26]): 0
- Plant response rating, I. Ryegrass (Italian ryegrass; [10]): 50
- Plant response rating, I. Ryegrass (Italian ryegrass; Rate 250 g/ha, 0 to 100 scale): 50
- Plant response rating, I. Ryegrass (Italian ryegrass; [21]): 60
- Plant response rating, Wild oat (wild oat; [10]): 50
- Plant response rating, Wild oat (wild oat; [21]): 50
- Plant response rating, Blackgrass (blackgrass; [10]): 30
- Plant response rating, Blackgrass (blackgrass; Rate 250 g/ha, 0 to 100 scale): 20
- Plant response rating, Blackgrass (blackgrass; [21]): 55
- Plant response rating, Green foxtail (green foxtail; [10]): 60
- Plant response rating, Green foxtail (green foxtail; Rate 250 g/ha, 0 to 100 scale): 60
- Plant response rating, Green foxtail (green foxtail; [21]): 65
- Plant response rating, Barley (winter) (winter barley; [10]): 20
- Plant response rating, Barley (winter) (winter barley; Rate 250 g/ha, 0 to 100 scale): 10
- Plant response rating, Barley (winter) (winter barley; [21]): 30
- Morningglory plant response rating (morningglory; [19]): 0
- Morningglory plant response rating (morningglory; [22]): 0
- Morningglory plant response rating (morningglory; [23]): 2
- Morningglory plant response rating (morningglory; [24]): 0
- Morningglory plant response rating (morningglory; [13]): 0
- Plant response rating, Morningglory (morningglory; [25]): 0
- Plant response rating, Morningglory (morningglory; [14]): 0
- Morningglory plant response rating (morningglory; [26]): 0
